{"source": "ChEMBL document CHEMBL1201862", "about": "“PubChem BioAssay data set” (2004)", "key": {"Vero [1]": {"test_system": "Vero", "assay": "inhibition of WNV-induced cytopathic effect – cell-based, CPE readout (AID 1621)", "format": "functional", "conditions": "Chlorocebus sabaeus"}, "Vero [2]": {"test_system": "Vero", "assay": "Vero 76 cell viability after compound exposure – Vero 76 cells, synthesized analogs, cytotoxicity control for West Nile virus antiviral project, SAR follow-up (AID 2414)", "format": "functional", "conditions": "Chlorocebus sabaeus"}, "Vero [3]": {"test_system": "Vero", "assay": "host cell viability loss, Vero E6 – synthesized analogs, cytotoxicity control for West Nile virus antiviral project, SAR follow-up (AID 2244)", "format": "functional", "conditions": "Chlorocebus sabaeus"}, "Vero [4]": {"test_system": "Vero", "assay": "Vero cell viability after compound exposure – synthesized analogs, set II, cytotoxicity control for West Nile virus antiviral project, SAR follow-up (AID 2402)", "format": "functional", "conditions": "Chlorocebus sabaeus"}, "Vero [5]": {"test_system": "Vero", "assay": "antiviral activity against WNV, CPE read-out – cell-based (AID 2419)", "format": "functional", "conditions": "Chlorocebus sabaeus"}, "Vero [6]": {"test_system": "Vero", "assay": "antiviral protection of cells from WNV – synthesized analogs, SAR follow-up (AID 2238)", "format": "functional, cell-based", "conditions": "Chlorocebus sabaeus"}, "Coagulation factor XII": {"biological_target": "T1, Coagulation factor XII (Homo sapiens, UniProt P00748)", "T1 sequence (P00748 whole entry)": "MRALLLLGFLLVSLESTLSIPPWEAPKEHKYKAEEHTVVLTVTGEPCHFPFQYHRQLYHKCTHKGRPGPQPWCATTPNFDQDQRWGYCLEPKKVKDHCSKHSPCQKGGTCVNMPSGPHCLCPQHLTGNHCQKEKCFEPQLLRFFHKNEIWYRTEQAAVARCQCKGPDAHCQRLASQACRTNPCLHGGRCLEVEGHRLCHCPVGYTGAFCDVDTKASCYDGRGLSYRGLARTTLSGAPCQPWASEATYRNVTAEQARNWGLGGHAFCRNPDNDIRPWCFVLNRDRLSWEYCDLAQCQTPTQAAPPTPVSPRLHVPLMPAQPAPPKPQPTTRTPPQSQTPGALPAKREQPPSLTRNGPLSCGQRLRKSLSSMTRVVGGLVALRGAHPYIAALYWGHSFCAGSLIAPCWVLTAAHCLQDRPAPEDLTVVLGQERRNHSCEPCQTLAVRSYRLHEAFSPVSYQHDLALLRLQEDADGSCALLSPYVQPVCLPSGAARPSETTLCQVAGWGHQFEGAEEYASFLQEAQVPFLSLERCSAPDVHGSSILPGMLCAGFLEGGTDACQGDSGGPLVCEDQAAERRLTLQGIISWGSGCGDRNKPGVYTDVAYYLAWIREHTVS", "assay": "activated coagulation factor XII inhibitor potency, concentration-effect curve, cell-free (AID 716)", "format": "functional"}, "[7]": {"biological_target": "E3 ubiquitin-protein ligase Mdm2/Protein Mdm4 (Homo sapiens, UniProt O15151+Q00987)", "sequence (Q00987 whole entry)": "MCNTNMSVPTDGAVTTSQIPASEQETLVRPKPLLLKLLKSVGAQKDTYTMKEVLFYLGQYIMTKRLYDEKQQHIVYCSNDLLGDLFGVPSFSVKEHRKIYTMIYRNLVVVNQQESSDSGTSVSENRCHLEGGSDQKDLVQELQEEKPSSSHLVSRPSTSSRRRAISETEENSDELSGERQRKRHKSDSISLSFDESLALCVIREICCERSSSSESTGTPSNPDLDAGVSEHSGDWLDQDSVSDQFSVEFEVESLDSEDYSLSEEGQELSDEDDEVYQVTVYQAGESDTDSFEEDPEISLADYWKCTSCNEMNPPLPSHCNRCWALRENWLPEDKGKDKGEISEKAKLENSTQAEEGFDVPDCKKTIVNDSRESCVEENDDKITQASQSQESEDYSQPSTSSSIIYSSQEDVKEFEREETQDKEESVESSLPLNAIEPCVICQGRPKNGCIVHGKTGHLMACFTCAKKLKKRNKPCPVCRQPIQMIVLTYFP", "sequence (O15151 whole entry)": "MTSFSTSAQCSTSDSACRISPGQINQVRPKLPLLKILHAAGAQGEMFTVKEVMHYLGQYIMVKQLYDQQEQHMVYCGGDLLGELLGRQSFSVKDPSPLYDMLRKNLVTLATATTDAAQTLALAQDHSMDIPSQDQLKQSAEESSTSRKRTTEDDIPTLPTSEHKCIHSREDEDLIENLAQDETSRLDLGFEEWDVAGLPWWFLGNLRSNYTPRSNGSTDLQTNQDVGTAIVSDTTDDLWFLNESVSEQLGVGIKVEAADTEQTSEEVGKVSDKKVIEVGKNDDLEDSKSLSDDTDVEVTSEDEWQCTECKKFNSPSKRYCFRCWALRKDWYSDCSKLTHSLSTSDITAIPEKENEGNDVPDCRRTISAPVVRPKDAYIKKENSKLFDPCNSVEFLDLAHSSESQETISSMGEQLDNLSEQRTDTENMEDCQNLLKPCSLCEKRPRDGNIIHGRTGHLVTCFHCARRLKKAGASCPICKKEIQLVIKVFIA", "assay": "disruption of Mdm2/MdmX protein binding – luminescence detection, dose response (AID 504593)", "format": "functional"}, "H9c2": {"test_system": "H9c2", "assay": "cells", "format": "functional, cell-based", "conditions": "Rattus norvegicus, H9c2, Myocardium"}, "[8]": {"biological_target": "Alkaline phosphatase, placental type (Homo sapiens, UniProt P05187)", "sequence (P05187 whole entry)": "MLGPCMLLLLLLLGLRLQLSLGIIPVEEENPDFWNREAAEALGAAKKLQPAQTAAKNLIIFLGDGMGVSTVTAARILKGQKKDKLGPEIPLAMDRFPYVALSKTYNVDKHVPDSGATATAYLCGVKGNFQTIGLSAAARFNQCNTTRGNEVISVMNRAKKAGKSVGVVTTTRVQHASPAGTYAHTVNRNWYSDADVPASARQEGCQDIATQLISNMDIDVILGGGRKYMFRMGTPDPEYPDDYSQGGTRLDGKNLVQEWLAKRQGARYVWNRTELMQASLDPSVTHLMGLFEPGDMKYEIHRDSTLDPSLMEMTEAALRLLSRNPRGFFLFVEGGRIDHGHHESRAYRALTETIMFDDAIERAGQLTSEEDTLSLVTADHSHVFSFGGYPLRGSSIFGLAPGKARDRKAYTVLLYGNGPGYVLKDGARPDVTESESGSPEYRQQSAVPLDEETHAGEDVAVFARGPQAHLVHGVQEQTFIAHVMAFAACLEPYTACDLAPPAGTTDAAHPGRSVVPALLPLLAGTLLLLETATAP", "assay": "human placental alkaline phosphatase inhibition – biochemical, luminescence, confirmation (AID 1512)", "format": "functional"}, "[9]": {"biological_target": "T2, Alkaline phosphatase, tissue-nonspecific isozyme (Homo sapiens, UniProt P05186)", "T2 sequence (P05186 whole entry)": "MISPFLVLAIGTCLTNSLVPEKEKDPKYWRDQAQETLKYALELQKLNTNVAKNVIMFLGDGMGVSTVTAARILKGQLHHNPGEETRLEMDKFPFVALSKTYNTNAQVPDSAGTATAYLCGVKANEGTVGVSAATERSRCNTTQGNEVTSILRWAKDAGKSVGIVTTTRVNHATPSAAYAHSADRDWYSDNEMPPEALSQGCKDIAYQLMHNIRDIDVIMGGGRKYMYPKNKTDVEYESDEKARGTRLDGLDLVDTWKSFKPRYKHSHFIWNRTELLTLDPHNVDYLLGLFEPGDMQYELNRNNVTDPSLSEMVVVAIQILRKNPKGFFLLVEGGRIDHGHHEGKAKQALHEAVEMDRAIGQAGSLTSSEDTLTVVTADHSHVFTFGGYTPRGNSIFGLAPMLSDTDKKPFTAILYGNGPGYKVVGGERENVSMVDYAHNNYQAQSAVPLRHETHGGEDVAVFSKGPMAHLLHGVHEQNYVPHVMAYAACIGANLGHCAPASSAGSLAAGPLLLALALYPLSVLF", "assay": "potency against alkaline phosphatase TNAP – biochemical, luminescent, dose response, SAR follow-up (AID 1056)"}, "[10]": {"biological_target": "T3, Tyrosine-protein phosphatase non-receptor type 7 (Homo sapiens, UniProt P35236)", "T3 sequence (P35236 whole entry)": "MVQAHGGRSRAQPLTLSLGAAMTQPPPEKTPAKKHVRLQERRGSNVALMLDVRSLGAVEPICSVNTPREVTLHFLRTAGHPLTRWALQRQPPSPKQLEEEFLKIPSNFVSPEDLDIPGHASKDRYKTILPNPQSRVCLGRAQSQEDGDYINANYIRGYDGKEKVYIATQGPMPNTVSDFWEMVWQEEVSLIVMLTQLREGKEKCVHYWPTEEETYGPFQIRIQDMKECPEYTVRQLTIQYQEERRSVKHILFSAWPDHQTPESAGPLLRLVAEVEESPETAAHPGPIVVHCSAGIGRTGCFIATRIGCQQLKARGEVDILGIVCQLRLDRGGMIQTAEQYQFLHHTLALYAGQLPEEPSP", "assay": "redox-active compounds inhibiting HePTP phosphatase – biochemical, fluorescence, mechanism study (AID 2068)", "format": "functional"}, "[11]": {"biological_target": "T4, Dual specificity protein phosphatase 3 (Homo sapiens, UniProt P51452)", "T4 sequence (P51452 whole entry)": "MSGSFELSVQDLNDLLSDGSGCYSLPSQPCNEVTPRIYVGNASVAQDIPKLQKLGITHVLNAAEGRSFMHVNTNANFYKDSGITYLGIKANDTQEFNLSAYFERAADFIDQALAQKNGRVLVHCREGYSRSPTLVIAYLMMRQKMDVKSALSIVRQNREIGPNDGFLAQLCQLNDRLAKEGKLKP", "assay": "SAR VHR1 Fluorescent Assay for In Vitro dose response studies. [Related pubchem assays (depositor defined):AID1654, AID1661, AID1878, AID1992, AID2004, AID2070, AID2085]", "format": "functional"}, "[12]": {"biological_target": "T4, Dual specificity protein phosphatase 3", "assay": "SAR VHR1 absorbance Assay for In Vitro dose response studies. [Related pubchem assays (depositor defined):AID1654, AID1661, AID1878, AID1992, AID2004]"}, "[13]": {"biological_target": "T4, Dual specificity protein phosphatase 3", "assay": "SAR VHR1 Fluorescent Assay for In Vitro dose response studies Set 2. [Related pubchem assays (depositor defined):AID1654, AID1661, AID1878]", "format": "functional"}, "[14]": {"biological_target": "Dual specificity protein phosphatase 6 (Rattus norvegicus, UniProt Q64346)", "sequence (Q64346 whole entry)": "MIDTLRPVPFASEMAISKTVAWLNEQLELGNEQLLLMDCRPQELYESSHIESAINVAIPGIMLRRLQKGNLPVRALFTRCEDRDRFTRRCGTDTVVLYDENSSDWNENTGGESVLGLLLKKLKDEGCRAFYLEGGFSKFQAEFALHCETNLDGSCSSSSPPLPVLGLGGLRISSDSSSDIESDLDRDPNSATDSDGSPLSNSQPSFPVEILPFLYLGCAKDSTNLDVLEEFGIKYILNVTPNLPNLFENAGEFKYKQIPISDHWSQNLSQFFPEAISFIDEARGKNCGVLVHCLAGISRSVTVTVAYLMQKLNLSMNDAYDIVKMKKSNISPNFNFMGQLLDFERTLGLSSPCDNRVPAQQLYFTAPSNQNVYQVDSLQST", "format": "functional"}}, "note": "Active and inactive are the calls of the source.", "data": [{"smiles": "O=C(CSc1nc2ccccc2c(=O)n1-c1ccc(F)cc1F)Nc1ccc2c(c1)CCC2", "values": [{"measurement": "IC50", "setting": "Vero [1]", "result": "11.8 µM (active)"}, {"measurement": "CC50", "setting": "Vero [2]", "result": "> 16.7 µM (active)"}, {"measurement": "CC50", "setting": "Vero [3]", "result": "> 80 µM (active)"}, {"measurement": "CC50", "setting": "Vero [4]", "result": "> 200 µM (active)"}, {"measurement": "IC50", "setting": "Vero [5]", "result": "173 µM (active)"}, {"measurement": "IC50", "setting": "Vero [6]", "result": "45 µM (active)"}]}, {"smiles": "CC(C)CC(c1nnnn1Cc1ccco1)N1CCN(C2CCCC2)CC1", "note": "(stereo unspecified)", "values": [{"measurement": "IC50", "setting": "Coagulation factor XII", "result": "> 50 µM (inactive)"}]}, {"smiles": "CC(=O)c1ccc(-c2ccc(C(=O)Nc3nc(-c4ccccn4)cs3)o2)cc1", "values": [{"measurement": "IC50", "setting": "[7]", "result": "3.97 µM (active)"}, {"measurement": "IC50", "setting": "H9c2", "result": "> 79 µM (inactive)"}]}, {"smiles": "O=C(CSc1nnc(-c2ccco2)[nH]1)c1ccc(O)c(O)c1", "values": [{"measurement": "IC50", "setting": "[8]", "result": "12.2 µM (active)"}, {"measurement": "IC50", "setting": "[9]", "result": "21.7 µM (active)"}]}, {"smiles": "CN(C)S(=O)(=O)c1cc(C(=O)NC2CCSc3ccccc32)ccc1Cl", "note": "(stereo unspecified)", "values": [{"measurement": "IC50", "setting": "[10]", "result": "> 100 µM (inactive)"}, {"measurement": "IC50", "setting": "[11]", "result": "> 100 µM (inactive)"}, {"measurement": "IC50", "setting": "[12]", "result": "> 100 µM (inactive)"}, {"measurement": "IC50", "setting": "[13]", "result": "> 100 µM (inactive)"}, {"measurement": "IC50", "setting": "[14]", "result": "> 100 µM (inactive)"}]}]}
